Assay results reported in the supplement of paper PMC11208160.

Experiment: recombinant UMI read abundance after kanamycin selection (control-corrected) (log10(CPM+1)); higher = more efficient recombination; extreme values may be limits of the assay; sequences stand for … in AGTGCAGAGAAAATCGGCCAGTTTTCTCTGCCTGCAGTCCGCATGCCGTGGGACCCCTTGGGTTCTAACCTGTTGCCTAGATTTATGCAGCGGACTGCCTTTCTCCCAAAGTGATAAACCGG…AGGTTGGTTTCACT; site = the 11-nt donor
Outline: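 Values, expressed as log10(CPM+1), derive from recombinant UMI counts converted to CPM, averaged across replicates and scaled by control-derived factors. Plating was with IPTG (0.07 mM) plus kanamycin or unselected, two replicates each. The screen pooled donor and donor-binding-loop pairs for the IS621 bridge recombinase in Escherichia coli.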
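Note: IS621 bridge recombinase in Escherichia coli cells against a fixed T5 target plasmid.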

Sequence | recombinant UMI read abundance (log10)
CGGAGTCCATGGACCGGTTTTCCCGGTAATCCGTATTTGAT (site CGGAGTCCTAT) | 1.98
CGGATATCATGGACCGGTTTTCCCGGTAATCCGTATTTGCT (site CGGAAATCTAG) | 0
CGGATATCATGGACCGGTTTTCCCGGTAATCCGTATTTGCT (site CGGACATCTAG) | 0
CGGATATCATGGACCGGTTTTCCCGGTAATCCGTATTTGCT (site CGGAGATCTAG) | 0
CGGATATCATGGACCGGTTTTCCCGGTAATCCGTATTTGCT (site CGGATATCTAG) | 1.51
CGGATGTCATGGACCGGTTTTCCCGGTAATCCGTATTTGTG (site CGGATGTCTCA) | 2.74
CGGATTCCATGGACCGGTTTTCCCGGTAATCCGTATTTGTT (site CGGAATCCTAA) | 0.00458
CGGATTCCATGGACCGGTTTTCCCGGTAATCCGTATTTGTT (site CGGACTCCTAA) | 0.0161
CGGATTCCATGGACCGGTTTTCCCGGTAATCCGTATTTGTT (site CGGAGTCCTAA) | 0.0137
CGGATTCCATGGACCGGTTTTCCCGGTAATCCGTATTTGTT (site CGGATTCCTAA) | 0.599
CGGCAGGCATGGACCGGTTTTCCCGGTAATCCGTATTTGAT (site CGGCAGGCTAT) | 2.21
CGGCATCCATGGACCGGTTTTCCCGGTAATCCGTATTTGGT (site CGGAATCCTAA) | 0
CGGCATCCATGGACCGGTTTTCCCGGTAATCCGTATTTGGT (site CGGCATCCTAC) | 0.00636
CGGCATCCATGGACCGGTTTTCCCGGTAATCCGTATTTGTT (site CGGAATCCTAA) | 0
CGGCATCCATGGACCGGTTTTCCCGGTAATCCGTATTTGTT (site CGGCATCCTAA) | 0.467
CGGCATCCATGGACCGGTTTTCCCGGTAATCCGTATTTGTT (site CGGGATCCTAA) | 0.0034
CGGCATCCATGGACCGGTTTTCCCGGTAATCCGTATTTGTT (site CGGTATCCTAA) | 0.0136
CGGCCAACATGGACCGGTTTTCCCGGTAATCCGTATTTGTC (site CGGCCAACTGA) | 1.56
CGGCGCTCATGGACCGGTTTTCCCGGTAATCCGTATTTGAT (site CGGCGCTCTAT) | 2.65

Sequence | recombinant UMI read abundance (log10)
CGGCGTACATGGACCGGTTTTCCCGGTAATCCGTATTTGCT (site CGACGTACTAG) | 1.63
CGGCGTACATGGACCGGTTTTCCCGGTAATCCGTATTTGCT (site CGCCGTACTAG) | 0.201
CGGCGTACATGGACCGGTTTTCCCGGTAATCCGTATTTGCT (site CGGCGTACTAG) | 2.38
CGGCGTACATGGACCGGTTTTCCCGGTAATCCGTATTTGCT (site CGTCGTACTAG) | 0
CGGCGTACATGGACCGGTTTTCCCGGTAATCCGTATTTGTC (site CGGCGTACTGA) | 2.31
CGGCGTGCATGGACCGGTTTTCCCGGTAATCCGTATTTGAC (site CGGCGTGCTGT) | 2.82
CGGCTTCCATGGACCGGTTTTCCCGGTAATCCGTATTTGGA (site CGGCTTCCTTC) | 0.00516
CGGCTTGCATGGACCGGTTTTCCCGGTAATCCGTATTTGCC (site CGGCTTGCTGG) | 0.904
CGGGAAACATGGACCGGTTTTCCCGGTAATCCGTATTTGCA (site CAGGAAACTTG) | 2
CGGGAAACATGGACCGGTTTTCCCGGTAATCCGTATTTGCA (site CCGGAAACTTG) | 1.45
CGGGAAACATGGACCGGTTTTCCCGGTAATCCGTATTTGCA (site CGGGAAACTTG) | 0.914
CGGGAAACATGGACCGGTTTTCCCGGTAATCCGTATTTGCA (site CTGGAAACTTG) | 1.04
CGGGAACCATGGACCGGTTTTCCCGGTAATCCGTATTTGCT (site CGGGAACCTAA) | 0
CGGGAACCATGGACCGGTTTTCCCGGTAATCCGTATTTGCT (site CGGGAACCTAC) | 0
CGGGAACCATGGACCGGTTTTCCCGGTAATCCGTATTTGCT (site CGGGAACCTAG) | 0
CGGGAACCATGGACCGGTTTTCCCGGTAATCCGTATTTGCT (site CGGGAACCTAT) | 0
CGGGAGCCATGGACCGGTTTTCCCGGTAATCCGTATTTGAT (site CGGGAACCTAT) | 0
CGGGAGCCATGGACCGGTTTTCCCGGTAATCCGTATTTGAT (site CGGGACCCTAT) | 0.00515
CGGGAGCCATGGACCGGTTTTCCCGGTAATCCGTATTTGAT (site CGGGAGCCTAT) | 0.266
